Where “and” joins values, the source holds several entries; their conditions need not be identical. Equal values may be shown once.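 These data come from cells grown in 96-well plates and exposed to compound for 48 hours at five concentrations. GI50 = concentration required for 50% inhibition of growth.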 Calls of active or inactive are those of the source. Cut-off read from the data, not from the text of the source: active = GI50 up to about 1.1 µM and inactive = higher.
Experiments:
Test in all cases: NCI-60 cell line screen, 48 h
786-0 = system: 786-0
A498 = system: A498
A549 = system: A549
ACHN = system: ACHN
CAKI-1 = system: CAKI-1
CCRF-CEM = system: CCRF-CEM
COLO 205 = system: COLO 205
DLD-1 = system: DLD-1
DMS-273 = system: DMS-273
EKVX = system: EKVX
HCT-15 = system: HCT-15
HL-60 = system: HL-60
HOP-18 = system: HOP-18
HOP-92 = system: HOP-92
HT-29 = system: HT-29
IGROV-1 = system: IGROV-1
K562 = system: K562
KM-20L2 = system: KM-20L2
LOX IMVI = system: LOX IMVI
LXFL 529 = system: LXFL 529
M14 = system: M14
M19-MEL = system: M19-MEL
MOLT-4 = system: MOLT-4
Malme-3M = system: Malme-3M
NCI-H23 = system: NCI-H23
NCI-H460 = system: NCI-H460
NCI-H522 = system: NCI-H522
OVCAR-4 = system: OVCAR-4
OVCAR-5 = system: OVCAR-5
OVCAR-8 = system: OVCAR-8
RPMI-8226 = system: RPMI-8226
RXF 393 = system: RXF 393
SF-268 = system: SF-268
SF-539 = system: SF-539
SK-MEL-28 = system: SK-MEL-28
SK-MEL-2 = system: SK-MEL-2
SK-OV-3 = system: SK-OV-3
SN12C = system: SN12C
SNB-19 = system: SNB-19
SNB-75 = system: SNB-75
SW-620 = system: SW-620
TK-10 = system: TK-10
U-251 = system: U-251
UACC-257 = system: UACC-257
UACC-62 = system: UACC-62
UO-31 = system: UO-31
XF498 = system: XF498
DMS-114 = system: DMS-114
HCC 2998 = system: HCC 2998
HCT-116 = system: HCT-116
KM12 = system: KM12
NCI-H226 = system: NCI-H226
OVCAR-3 = system: OVCAR-3
SF-295 = system: SF-295
SK-MEL-5 = system: SK-MEL-5
SNB-78 = system: SNB-78
SR = system: SR
HOP-62 = system: HOP-62
MCF7 = system: MCF7
BT-549 = system: BT-549
DU-145 = system: DU-145
Hs-578T = system: Hs-578T
MDA-MB-231 = system: MDA-MB-231
MDA-MB-435 = system: MDA-MB-435
PC-3 = system: PC-3
T47D = system: T47D

Measured: GI50

O=C(O)CN(c1ccccc1)S(=O)(=O)c1ccc(NC(=O)c2ccccc2)cc1
> 100 µM: HCT-15
inactive: 786-0 > 100 µM | A498 > 100 µM | A549 > 100 µM | ACHN > 100 µM | CAKI-1 > 100 µM | CCRF-CEM > 100 µM | COLO 205 > 100 µM | DLD-1 > 100 µM | DMS-273 > 100 µM | EKVX > 100 µM | HL-60 > 100 µM | HOP-18 > 100 µM | HOP-92 > 100 µM | HT-29 > 10 µM | IGROV-1 > 100 µM | K562 > 100 µM | KM-20L2 > 100 µM | LOX IMVI > 100 µM | LXFL 529 > 100 µM | M14 > 100 µM | M19-MEL > 100 µM | MOLT-4 > 100 µM | Malme-3M > 100 µM | NCI-H23 > 100 µM | NCI-H460 > 100 µM | NCI-H522 > 100 µM | OVCAR-4 > 100 µM | OVCAR-5 > 100 µM | OVCAR-8 > 100 µM | RPMI-8226 > 100 µM | RXF 393 > 100 µM | SF-268 > 100 µM | SF-539 > 100 µM | SK-MEL-28 > 100 µM | SK-MEL-2 > 100 µM | SK-OV-3 > 100 µM | SN12C > 100 µM | SNB-19 > 100 µM | SNB-75 > 100 µM | SW-620 > 100 µM | TK-10 > 100 µM | U-251 > 100 µM | UACC-257 > 100 µM | UACC-62 > 100 µM | UO-31 > 100 µM | XF498 > 100 µM

O=[N+]([O-])c1ccc(Cl)c(C2SCc3nc4ccccc4n32)c1 (centres undefined)
inactive: 786-0 72.3 µM | A498 32.3 µM | A549 44.9 µM | ACHN 44.9 µM | CAKI-1 20.1 µM | CCRF-CEM 28 µM | COLO 205 37.6 µM | DLD-1 45.8 µM | DMS-114 37 µM | DMS-273 22.9 µM | EKVX 42.4 µM | HCC 2998 71.4 µM | HCT-116 31.6 µM | HL-60 23.2 µM | HOP-18 5.87 µM | HOP-92 16.1 µM | HT-29 36 µM | IGROV-1 46.2 µM | K562 27.7 µM | KM12 29 µM | LXFL 529 34.8 µM | M19-MEL 29.6 µM | MOLT-4 24.2 µM | Malme-3M 44.1 µM | NCI-H226 24.1 µM | NCI-H23 33.2 µM | NCI-H460 28.7 µM | NCI-H522 22.3 µM | OVCAR-3 36.6 µM | OVCAR-5 27.4 µM | OVCAR-8 43.3 µM | RPMI-8226 31.2 µM | RXF 393 33 µM | SF-268 29.8 µM | SF-295 32.6 µM | SF-539 31.9 µM | SK-MEL-28 40.6 µM | SK-MEL-2 50.9 µM | SK-MEL-5 16.5 µM | SK-OV-3 36.6 µM | SN12C 43.6 µM | SNB-19 41.5 µM | SNB-75 24.9 µM | SNB-78 34.6 µM | SR 32.1 µM | SW-620 35 µM | TK-10 64.6 µM | U-251 41.8 µM | UACC-257 28.1 µM | UACC-62 39.9 µM | UO-31 17.3 µM

CC1=C(C)C(=O)O[C@@H]([C@](C)(O)[C@]2(O)CC[C@@]3(O)[C@@H]4C[C@H]5O[C@]56[C@@H](O)C=CC(=O)[C@]6(C)[C@H]4CC[C@]23C)C1
0.137 µM: HCT-15
inactive: A549 4.01 µM | HCC 2998 1.71 µM | NCI-H226 11 µM | NCI-H460 1.6 µM | SF-295 2.99 µM | SK-OV-3 6.4 µM | SNB-19 2.17 µM | U-251 1.88 µM
active: CAKI-1 0.025 µM | CCRF-CEM 0.0851 µM | HCT-116 0.182 µM | HOP-18 0.0454 µM | HOP-62 1.11 µM | HOP-92 0.0373 µM | HT-29 0.174 µM | IGROV-1 1.01 µM | LOX IMVI 0.133 µM | MCF7 0.186 µM | Malme-3M 0.33 µM | RPMI-8226 0.0959 µM | SF-539 0.774 µM | SK-MEL-2 0.451 µM | SK-MEL-5 0.414 µM | SN12C 1.04 µM | SNB-75 0.0468 µM | SNB-78 0.499 µM | UACC-257 0.308 µM | UO-31 0.587 µM | XF498 0.0912 µM

N#Cc1cn(C2OC(CO)C(O)C2O)c2ncnc(N)c12 (centres undefined)
active: 786-0 0.0241 µM | A498 57.4 nM and 114 nM | BT-549 0.0577 µM | CCRF-CEM 16.1 nM and 18 nM | COLO 205 14.6 nM and < 16.4 nM | DLD-1 0.045 µM | DMS-273 0.0409 µM | DU-145 0.0393 µM | EKVX 60.3 nM and 94.8 nM | HL-60 < 10 nM and < 13.8 nM | HOP-18 0.109 µM | HOP-92 46.2 nM and 76.6 nM | Hs-578T 0.0302 µM | IGROV-1 47.1 nM and 23.8 nM | KM-20L2 0.0476 µM | KM12 24.1 nM and 44.4 nM | LOX IMVI 14.7 nM and 24.9 nM | MDA-MB-231 0.0158 µM | MDA-MB-435 < 0.0169 µM | MOLT-4 23.9 nM and 25.3 nM | Malme-3M 39.9 nM and 47.5 nM | NCI-H226 66.4 nM and 66.2 nM | OVCAR-3 25.4 nM and 45 nM | OVCAR-5 112 nM and 81.7 nM | PC-3 0.015 µM | RXF 393 23.2 nM and 21.7 nM | SF-539 45.4 nM and 76.4 nM | SK-MEL-2 18.2 nM and 29.6 nM | SK-OV-3 26 nM and 42.9 nM | SNB-78 0.191 µM | SR < 0.01 µM | T47D 0.0199 µM | TK-10 0.014 µM | UACC-257 62.2 nM and 81.8 nM | XF498 0.00414 µM

CCOc1ccc2[nH]c3c(C)c4cc[n+](C)cc4c(C)c3c2c1
active: 786-0 0.149 µM | DLD-1 0.9 µM | LXFL 529 0.22 µM | NCI-H226 0.264 µM | NCI-H23 0.929 µM | NCI-H522 0.838 µM | SF-268 0.184 µM | SF-295 0.125 µM | SF-539 0.363 µM | SN12C 0.14 µM | SNB-78 1.09 µM | U-251 0.115 µM
inactive: A549 1.18 µM | CCRF-CEM 1.98 µM | EKVX 2.57 µM | HCC 2998 3 µM | HCT-116 1.82 µM | HL-60 4.67 µM | HOP-18 2.62 µM | HOP-92 1.98 µM | HT-29 3.25 µM | IGROV-1 2.18 µM | K562 1.58 µM | KM-20L2 3.35 µM | KM12 1.57 µM | M14 5.81 µM | NCI-H460 1.94 µM | OVCAR-3 2.52 µM | OVCAR-4 2.54 µM | RPMI-8226 11.3 µM | RXF 393 6.41 µM | SK-MEL-28 2.24 µM | SK-MEL-2 1.51 µM | SK-MEL-5 1.36 µM | SK-OV-3 2.88 µM | SW-620 1.28 µM | UACC-257 2.97 µM | UACC-62 1.84 µM | UO-31 16.6 µM

Cc1nnc(N/N=C(/C(=O)C(C#N)c2ccccc2)C(C#N)c2ccccc2)n1N (centres undefined)
active: MOLT-4 0.845 µM | NCI-H460 1.01 µM
16.1 µM: HCT-15
inactive: 786-0 11.8 µM | A498 7.98 µM | A549 20.2 µM | ACHN 22.3 µM | CAKI-1 32.1 µM | CCRF-CEM 2.12 µM | COLO 205 4.76 µM | DLD-1 22.6 µM | DMS-114 3.01 µM | DMS-273 17.7 µM | EKVX 51.9 µM | HCC 2998 4.85 µM | HCT-116 2.46 µM | HL-60 17.9 µM | HOP-18 15.2 µM | HOP-62 50.7 µM | HOP-92 > 100 µM | HT-29 6.4 µM | IGROV-1 > 58.9 µM | K562 3.73 µM | KM-20L2 49.3 µM | KM12 28.4 µM | LOX IMVI 1.54 µM | LXFL 529 3.71 µM | M14 16.8 µM | M19-MEL 2.74 µM | Malme-3M 4.18 µM | NCI-H226 28.8 µM | NCI-H23 12.9 µM | NCI-H522 17.9 µM | OVCAR-3 20 µM | OVCAR-4 24.4 µM | OVCAR-5 > 42.9 µM | OVCAR-8 3.62 µM | RPMI-8226 19.6 µM | RXF 393 17 µM | SF-268 31 µM | SF-295 3.75 µM | SF-539 > 48.6 µM | SK-MEL-28 20 µM | SK-MEL-2 5.25 µM | SK-MEL-5 18.3 µM | SK-OV-3 > 61.4 µM | SN12C 3.13 µM | SNB-19 56 µM | SNB-75 16.4 µM | SNB-78 > 51.1 µM | SR 32.3 µM | SW-620 1.56 µM | TK-10 > 60.3 µM | U-251 32.6 µM | UACC-257 5.26 µM | UACC-62 29.8 µM | UO-31 26.4 µM

Source: ChEMBL document CHEMBL1201862, “PubChem BioAssay data set” (2004)
